For this assay, the target named is T1, human muscarinic acetylcholine M1 receptor (Homo sapiens, UniProt P11229).
T1 construct: expressed in transfected cells; host or cells: CHO-K1
T1 sequence (P11229 1-460): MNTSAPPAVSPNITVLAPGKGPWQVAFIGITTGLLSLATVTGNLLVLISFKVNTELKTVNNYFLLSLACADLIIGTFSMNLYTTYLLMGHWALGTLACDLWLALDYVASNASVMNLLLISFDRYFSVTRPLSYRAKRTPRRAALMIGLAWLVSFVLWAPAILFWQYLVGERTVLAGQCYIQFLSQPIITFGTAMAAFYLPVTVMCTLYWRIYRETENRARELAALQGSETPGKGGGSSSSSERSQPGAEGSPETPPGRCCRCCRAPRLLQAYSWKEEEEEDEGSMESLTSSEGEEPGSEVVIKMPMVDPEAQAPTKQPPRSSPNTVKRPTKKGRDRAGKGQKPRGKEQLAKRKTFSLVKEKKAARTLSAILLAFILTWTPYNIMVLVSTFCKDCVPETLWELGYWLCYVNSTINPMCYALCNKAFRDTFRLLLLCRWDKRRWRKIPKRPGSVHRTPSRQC
The assay can be described thus: M1 PAM Assay (IP-One HTRF, IP1 accumulation in M1-CHO cells). Format: cell-based. As to the method: Then diluted compounds (0.6% DMSO final concentration) are added together with EC20 of acetylcholine and incubated with the cells for 30 min at 37° C., 5% CO2.
CHO-K1 cells stably transfected with human muscarinic acetylcholine M1 receptor are cultured in Ham's F12 medium containing 10% heat inactivated fetal calf serum, 2 mM L-glutamine and Penicillin-Streptomycin grown in a humidified atmosphere at 5% CO2/95% air at 37° C.
(In general: Time-resolved FRET reads energy transfer from a long-lived donor to a nearby acceptor.)

Setting [1] is: CHO-K1 cells stably transfected with human M1 receptor, compounds added with EC20 of acetylcholine (25 nM), 30 min, intracellular IP1 by IP-One HTRF, read-out: M1 PAM EC50.

SMILES strings stand for the structures. Where a name gives a salt, the structure may show the parent alone. Read-outs that look alike come from different tables or passages of the source.

EC50 data for 24 compounds are collected here from patent US9505769B2 (ASCENEURON SA, priority 2013, dated 2016).

One may read the EC50 as the concentration that produces a half-maximal response. Regarding `Cc1nc2c3c(nn2c(C)c1Cl)CN(C(=O)c1ccc(F)cc1O[C@H]1CCNC[C@@H]1F)C3` (racemic) [Example 1], the EC50 under setting [1] is less than 200 nM.
`Cc1nc2c3c(nn2c(C)c1Cl)CN(C(=O)c1ccc(F)cc1O[C@H]1CCN(C)C[C@@H]1F)C3` (racemic) [Example 2, (anti)-(3-chloro-2,4-dimethyl-7H-pyrrolo[3′,4′:3,4]pyrazolo[1,5-a]pyrimidin-8(9H)-yl)(4-fluoro-2-((-3-fluoro-1-methylpiperidin-4-yl)oxy)phenyl)methanone]: the EC50 under setting [1] fell in the range of 200 to 1000 nM.
With `Cc1nc2c3c(nn2c(C)c1Cl)CN(C(=O)c1ccccc1O[C@H]1CNC[C@@H]1O)C3` (racemic) [Example 4, (anti)-(6-Chloro-5,7-dimethyl-1H,3H-2,4,7a,8-tetraaza-cyclopenta[a]inden-2-yl)-[2-(4-hydroxy-pyrrolidin-3-yloxy)-phenyl]-methanone], under setting [1], the EC50 lay in the range of 200 to 1000 nM.
For the compound `Cc1nc2c3c(nn2c(C)c1Cl)CN(C(=O)c1ccccc1O[C@H]1CCC[C@@H]1O)C3` (racemic) [Example 8, (anti)-(6-Chloro-5,7-dimethyl-1H,3H-2,4,7a,8-tetraaza-cyclopenta[a]inden-2-yl)-[2-(2-hydroxy-cyclopentyloxy)-phenyl]-methanone], the EC50 under setting [1] was 200 to 1000 nM.
In the case of `Cc1nc2c3c(nn2c(C)c1Cl)CN(C(=O)c1ccccc1O[C@H]1CN(C)C[C@@H]1O)C3` (racemic) [Example 13, (anti)-(6-Chloro-5,7-dimethyl-1H,3H-2,4,7a,8-tetraaza-cyclopenta[a]inden-2-yl)-[2-(4-hydroxy-1-methyl-pyrrolidin-3-yloxy)-phenyl]-methanone], under setting [1], the 50% effective concentration (EC50) was 1000 to 3000 nM.
Same read-out and setting: the same measure for `Cc1nc2c3c(nn2c(C)c1Cl)CN(C(=O)c1ccccc1O[C@H]1CCCC[C@@H]1O)C3` (racemic) [Example 17, (anti)-(3-chloro-2,4-dimethyl-7H-pyrrolo[3′,4′:3,4]pyrazolo[1,5-a]pyrimidin-8(9H)-yl)(2-((2-hydroxycyclohexyl)oxy)phenyl)methanone]: 1000 to 3000 nM; for `Cc1nc2c3c(nn2c(C)c1Cl)CN(C(=O)c1ccc(F)cc1O[C@H]1CCNC[C@H]1F)C3` (racemic) [Example 18]: 200 to 1000 nM; for `Cc1nc2c3c(nn2c(C)c1Cl)CN(C(=O)c1ccccc1O[C@H]1COC[C@@H]1O)C3` (racemic) [Example 21, (anti)-(3-chloro-2,4-dimethyl-7H-pyrrolo[3′,4′:3,4]pyrazolo[1,5-a]pyrimidin-8(9H)-yl)(2-((4-hydroxytetrahydrofuran-3-yl)oxy)phenyl)methanone]: 1000 to 3000 nM.
On the same count and under the same terms, under `Cc1nc2c3c(nn2c(C)c1Cl)CN(C(=O)c1ccccc1O[C@H]1CNC[C@H]1F)C3` (racemic) [Example 25, (syn)-(6-Chloro-5,7-dimethyl-1H,3H-2,4,7a,8-tetraaza-cyclopenta[a]inden-2-yl)-[2-(4-fluoro-pyrrolidin-3-yloxy)-phenyl]-methanone] stands 200 to 1000 nM.
The same measure, in the same setting: under `Cc1nc2c3c(nn2c(C)c1Cl)CN(C(=O)c1ccc(F)cc1O[C@H]1COC[C@@H]1O)C3` (racemic) [Example 26, (anti)-(3-chloro-2,4-dimethyl-7H-pyrrolo[3′,4′:3,4]pyrazolo[1,5-a]pyrimidin-8(9H)-yl)(4-fluoro-2-((4-hydroxytetrahydrofuran-3-yl)oxy)phenyl)methanone] stands 1000 to 3000 nM; under `Cc1nc2c3c(nn2c(C)c1Cl)CN(C(=O)c1ccc(F)cc1O[C@H]1CNC[C@@H]1O)C3` (racemic) [Example 27, (anti)-(6-Chloro-5,7-dimethyl-1H,3H-2,4,7a,8-tetraaza-cyclopenta[a]inden-2-yl)-[4-fluoro-2-(4-hydroxy-pyrrolidin-3-yloxy)-phenyl]-methanone], 200 to 1000 nM.
Take `Cc1nc2c3c(nn2c(C)c1Cl)CN(C(=O)c1ccc(F)cc1OC1CC2CC(F)C(C1)N2C)C3` (racemic) [Example 38, (3-chloro-2,4-dimethyl-7H-pyrrolo[3′,4′:3,4]pyrazolo[1,5-a]pyrimidin-8(9H)-yl)(4-fluoro-2-(((3-endo)-(6-endo)-6-fluoro-8-methyl-8-azabicyclo[3.2.1]octan-3-yl)oxy)phenyl)methanone]: the EC50 was less than 200 nM.
Still for that read-out and setting: under `Cc1nc2c3c(nn2c(C)c1Cl)CN(C(=O)c1ccc(F)cc1OC1CC2C[C@H](O)C(C1)N2C)C3` (mixture of isomers) [Example 39, (3-chloro-2,4-dimethyl-7H-pyrrolo[3′,4′:3,4]pyrazolo[1,5-a]pyrimidin-8(9H)-yl)(4-fluoro-2-(((3-endo)-(6-exo)-6-hydroxy-8-methyl-8-azabicyclo[3.2.1]octan-3-yl)oxy)phenyl)methanone] stands less than 200 nM.
Consider `Cc1nc2c3c(nn2c(C)c1Cl)CN(C(=O)c1ccc(F)cc1O[C@H]1CN(C)C[C@@H]1O)C3` (racemic) [Example 45, (anti)-(6-Chloro-5,7-dimethyl-1H,3H-2,4,7a,8-tetraaza-cyclopenta[a]inden-2-yl)-[4-fluoro-2-(4-hydroxy-1-methyl-pyrrolidin-3-yloxy)-phenyl]-methanone], for which, under setting [1], the EC50 lay within 200 to 1000 nM.
As to `CN1C2CC(Oc3cc(F)ccc3C(=O)N3Cc4nn5cc(Cl)cnc5c4C3)CC1[C@@H](O)C2` (mixture of isomers) [Example 69, (3-chloro-7H-pyrrolo[3′,4′:3,4]pyrazolo[1,5-a]pyrimidin-8(9H)-yl)(4-fluoro-2-(((3-endo)-(6-exo)-6-hydroxy-8-methyl-8-azabicyclo[3.2.1]octan-3-yl)oxy)phenyl)methanone], the concentration for a half-maximal effect (EC50) was less than 200 nM.
`Cc1nc2c3c(nn2c(C)c1Cl)CN(C(=O)c1ccccc1O[C@H]1CCNC[C@@H]1O)C3` (single isomer, unassigned) [Example 5]: the EC50 under setting [1] fell in the range of 200 to 1000 nM.
Same read-out and setting: the same measure for `Cc1nc2c3c(nn2c(C)c1Cl)CN(C(=O)c1ccc(F)cc1O[C@H]1CC[C@H](O)CC1)C3` (single isomer, unassigned) [Example 41, (anti)-(6-Chloro-5,7-dimethyl-1H,3H-2,4,7a8-tetraaza-cyclopenta[a]inden-2-yl)-[4-fluoro-2-(4-hydroxy-cyclohexyloxy)-phenyl]-methanone]: less than 200 nM.
In the case of `Cc1nc2c3c(nn2c(C)c1Cl)CN(C(=O)c1ccc(F)cc1OCCN1CCC[C@H]1C)C3` (single isomer, unassigned) [Example 44], under setting [1], the EC50 is 1000 to 3000 nM.
For `Cc1nc2c3c(nn2c(C)c1Cl)CN(C(=O)c1ccc(F)cc1O[C@H]1CC[C@@H](O)CC1)C3` (single isomer, unassigned) [Example 49, (syn)-(6-Chloro-5,7-dimethyl-1H,3H-2,4,7a,8-tetraaza-cvclopenta[a]inden-2-yl)-[4-fluoro-2-(4-hydroxy-cyclohexyloxy)-phenyl]-methanone], the EC50 under setting [1] lay within 200 to 1000 nM.
`O=C(c1ccc(F)cc1O[C@H]1C[C@H]2CC[C@@H](C1)N2CCO)N1Cc2nn3cc(Cl)cnc3c2C1` (single isomer, unassigned) [Example 50, (3-chloro-7H-pyrrolo[3′,4′:3,4]pyrazolo[1,5-a]pyrimidin-8(9H)-yl)(4-fluoro-2-{[(3-endo)-8-(2-hydroxyethyl)-8-azabicyclo[3.2.1]oct-3-yl]oxy}phenyl)methanone] showed an EC50 of 200 to 1000 nM.
The same measure, in the same setting: the same measure for `O=C(c1ccc(F)cc1O[C@H]1C[C@H]2CC[C@@H](C1)N2CCF)N1Cc2nn3cc(Cl)cnc3c2C1` (single isomer, unassigned) [Example 51, (3-chloro-7H-pyrrolo[3′,4′:3,4]pyrazolo[1,5-a]pyrimidin-8(9H)-yl)(4-fluoro-2-{[(3-endo)-8-(2-fluoroethyl)-8-azabicyclo[3.2.1]oct-3-yl]oxy}phenyl)methanone]: less than 200 nM.
For the compound `Cc1nc2c3c(nn2c(C)c1Cl)CN(C(=O)c1ccc(F)cc1O[C@H]1CCNC[C@@H]1O)C3` (single isomer, unassigned) [Example 70, (3-chloro-2,4-dimethyl-7H-pyrrolo[3′,4′:3,4]pyrazolo[1,5-a]pyrimidin-8(9H)-yl)(4-fluoro-2-(((3S,4S)-3-hydroxypiperidin-4-yl)oxy)phenyl)methanone hydrochloride or (3-chloro-2,4-dimethyl-7H-pyrrolo[3′,4′:3,4]pyrazolo[1,5-a]pyrimidin-8(9H)-yl)(4-fluoro-2-(((3R,4R)-3-hydroxypiperidin-4-yl)oxy)phenyl)methanone hydrochloride], the concentration giving a half-maximal response (EC50) under setting [1] is 200 to 1000 nM.
Turning to `Cc1nc2c3c(nn2c(C)c1Cl)CN(C(=O)c1ccc(F)cc1O[C@@H]1CCN[C@@H](C)C1)C3` (stereo in doubt) [Example 24, (3-chloro-2,4-dimethyl-7H-pyrrolo[3′,4′:3,4]pyrazolo[1,5-a]pyrimidin-8(9H)-yl)(4-fluoro-2-((2-methylpiperidin-4-yl)oxy)phenyl)methanone hydrochloride], the EC50 under setting [1] fell in the range of 200 to 1000 nM.
Turning to `Cc1nc2c3c(nn2c(C)c1Cl)CN(C(=O)c1ccc(F)cc1O[C@H]1CCN[C@@H](C)C1)C3` (stereo in doubt) [Example 48, (3-chloro-2,4-dimethyl-7H-pyrrolo[3′,4′:3,4]pyrazolo[1,5-a]pyrimidin-8(9H)-yl)(4-fluoro-2-((2-methylpiperidin-4-yl)oxy)phenyl)methanone hydrochloride], under setting [1], the EC50 lay in the range of 200 to 1000 nM.
